Patent US20250145628A1, “PYRAZOLOPYRIMIDINES, COMPOSITIONS COMPRISING THEM AND USES THEREOF” (Novo Nordisk A/S, priority 2022, published 2025)

Experiments:
human CB1 receptor [1] = target: T1, human CB1 receptor (Homo sapiens, UniProt P21554); experiment: bioSensAll GAPL-Gi2 BRET biosensor assay (antagonism of CP-55,940); format: cell-based; conditions: HEK293 cells transfected with hCB1 and GAPL-Gi2 biosensor, EC75 of CP-55,940 (0.1 nM), overnight incubation, read-out: CB1 wt Gi2 IC50
T1 construct: expressed in transfected cells; host or cells: HEK293
T1 sequence (P21554 whole entry): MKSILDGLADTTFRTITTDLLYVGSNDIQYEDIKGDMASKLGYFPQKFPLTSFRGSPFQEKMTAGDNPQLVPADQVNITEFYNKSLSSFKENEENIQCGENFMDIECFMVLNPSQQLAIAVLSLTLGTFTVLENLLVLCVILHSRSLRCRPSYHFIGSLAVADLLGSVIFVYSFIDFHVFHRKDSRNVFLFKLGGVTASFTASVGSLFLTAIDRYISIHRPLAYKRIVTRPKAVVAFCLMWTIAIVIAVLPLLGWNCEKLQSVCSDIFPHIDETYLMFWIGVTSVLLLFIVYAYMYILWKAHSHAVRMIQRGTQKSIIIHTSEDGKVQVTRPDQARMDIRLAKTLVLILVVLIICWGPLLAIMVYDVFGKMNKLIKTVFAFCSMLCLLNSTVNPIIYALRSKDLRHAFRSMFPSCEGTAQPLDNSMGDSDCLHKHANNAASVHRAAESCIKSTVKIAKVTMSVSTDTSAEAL
Procedure: (§1) Using polyethylenimine (PEI) transfection agent, HEK293 cells were transfected in suspension with the human CB1 or CB1b receptor and one of the following bioSensAll® assays: GAPL-Gi2, or β-arrestin plasma membrane (PM) translocation biosensor (+GRK2). Cells were directly seeded in 96-well plates immediately following transfection.
(§2) Cells were incubated with coelenterazine (luciferase substrate) and different test compounds prior to the measurement of BRET signals.
i) GAPL sensors are used to monitor the activation of heterotrimeric G proteins at the plasma membrane upon receptor stimulation. Specifically, these multimolecular BRET sensors detect the plasma membrane recruitment of proteins that interact with active Ga subunits in a G protein family-selective manner. G protein activation following receptor stimulation generally leads to an increase in the BRET signal.
(§3) HEK293 cells were maintained in Dulbecco's Modified Eagle Medium (DMEM) (Wisent; cat #319-030-CL: without sodium pyruvate, with 4.5 g/L glucose, without L-glutamine) supplemented with 1% penicillin-streptomycin (Wisent; cat #450-201-EL) and 2 or 10% fetal bovine serum (Wisent cat #090150).
(§4) HEK293 cells were co-transfected with hCB1 or hCB1b and one of the above-listed bioSensAll® assays. For each transfection condition: • the total amount of transfected DNA was kept constant at 1 μg per mL of cell culture to be transfected; whenever necessary, salmon sperm DNA (Invitrogen, cat #15632011) was used as ‘carrier’ DNA to supplement plasmid DNA (i.e., biosensor and receptor); • the PEI (polyethylenimine 25 kDa linear, PolyScience, cat #23966) to DNA ratio (ug:ug) was fixed at 3:1.
(§5) Transfections were carried out as follows: • DNA and PEI were first diluted separately in 150 mM NaCl. The volume of the diluent in each tube corresponds to 5% of the cell culture volume to be transfected. • Once DNA and PEI were diluted, the PEI-containing solution was added to the DNA solution and the DNA/PEI mixture immediately vortexed for 5 seconds. • The DNA/PEI mixture was incubated for at least 20 minutes at room temperature to allow for the formation of DNA/PEI complexes. • During the incubation, HEK293 cells were detached, counted and re-suspended in culture medium (composition specified above). • At the end of the incubation period, the DNA/PEI mixture was added to the cells. • Cells were finally distributed in 96-well plates (White Opaque 96-well/Microplates, Greiner, cat #655083 or CulturPlate-96, White Opaque 96-well Microplate, PerkinElmer, cat #6005688) at a density of 30 000 cells per well.
(§6) At ˜48 hours post-transfection: • Using 450-Select TS Biotek plate washer, culture medium was aspirated and replaced with 100 μl of Hank's Balanced Salt Solution buffer (HBSS) (Wisent, cat #319-067CL: without red phenol; with sodium bicarbonate, with calcium and magnesium, with HEPES) per well. This process was performed a total of two times (i.e., 2 washes). • After the washing step, the HP D300 digital dispenser (Tecan) was used to inject increasing doses (12) of test compounds (ranging from 0-600 nM) to wells. Three to five minutes later, an EC75 of CP-55,940 (0.1 nM for GAPL-Gi2 assay; 100 nM for β-arrestin PM translocation biosensor (+GRK2)) was added to columns 2-12 of each 96-well plate.
(§7) BRET signals were determined by calculating the ratio of light emitted by GFP-acceptor (515 nm) over light emitted by luciferase-donor (400 nm). All BRET ratios were standardized using the equation below with pre-established BRET values for positive and negative controls. The standardized BRET ratio is referred to as universal BRET (uBRET).
(§8) Resulting dose-response curves were fitted using the four-parameter logistic non-linear regression model in GraphPad Prism 9.

human CB1 receptor [2] = target: T1, human CB1 receptor; experiment: bioSensAll β-arrestin plasma membrane translocation BRET biosensor (+GRK2) assay (antagonism of CP-55,940); format: cell-based; conditions: HEK293 cells transfected with hCB1 and β-arrestin PM translocation biosensor (+GRK2), EC75 of CP-55,940 (100 nM), overnight incubation, read-out: CB1 wt βarr2 IC50
Procedure: as §1, §2
ii) The multimolecular β-arrestin membrane recruitment biosensors allow for real-time spatio-temporal monitoring of β-arrestin 1 and β-arrestin 2 following GPCR activation. Specifically, these β-arrestin sensors were designed to detect the recruitment of proteins to the plasma membrane (β-arrestin PM) with localization to compartment resulting in an increased BRET signal.
as §3, §4, §5, §6, §7, §8

Row | SMILES | IC50 (human CB1 receptor [1]) [nM] | IC50 (human CB1 receptor [2]) [nM]
1 | CC1(C(N)=O)CCN(c2cc(N3CCC[C@H]3C(=O)O)nc3c(-c4ccc(Cl)cc4)c(-c4ccccc4Cl)nn23)CC1 [Compound 18, (2S)-1-[7-(4-carbamoyl-4-methyl-1-piperidyl)-2-(2-chlorophenyl)-3-(4-chlorophenyl)pyrazolo[1,5-a]pyrimidin-5-yl]pyrrolidine-2-carboxylic acid] | 56.2 | 109
2 | CC1(C(N)=O)CCN(c2cc(N3CC[C@@H]3CC(=O)O)nc3c(-c4ccc(Cl)cc4)c(-c4ccccc4Cl)nn23)CC1 [Compound 19, 2-[(2R)-1-[7-(4-carbamoyl-4-methyl-1-piperidyl)-2-(2-chlorophenyl)-3-(4-chlorophenyl)pyrazolo[1,5-a]pyrimidin-5-yl]azetidin-2-yl]acetic acid] | 1480 | > 10000
3 | CN(CC(C)(C)O)c1cc(N2CCC(C)(C(N)=O)CC2)n2nc(-c3ccccc3Cl)c(-c3ccc(Cl)cc3)c2n1 [Compound 20, 1-[2-(2-chlorophenyl)-3-(4-chlorophenyl)-5-[(2-hydroxy-2-methyl-propyl)-methyl-amino]pyrazolo[1,5-a]pyrimidin-7-yl]-4-methyl-piperidine-4-carboxamide] | 5.53 | 22.8
4 | CC1(C(N)=O)CCN(c2cc(N3CC[C@@H](O)C3)nc3c(-c4ccc(Cl)cc4)c(-c4ccccc4Cl)nn23)CC1 [Compound 21, 1-[2-(2-chlorophenyl)-3-(4-chlorophenyl)-5-[(3R)-3-hydroxypyrrolidin-1-yl]pyrazolo[1,5-a]pyrimidin-7-yl]-4-methyl-piperidine-4-carboxamide] | 1.28 | 4.6
5 | CN(CCC(N)=O)c1cc(N2CCC(C)(C(N)=O)CC2)n2nc(-c3ccccc3Cl)c(-c3ccc(Cl)cc3)c2n1 [Compound 22, 1-[5-[(3-amino-3-oxo-propyl)-methyl-amino]-2-(2-chlorophenyl)-3-(4-chlorophenyl)pyrazolo[1,5-a]pyrimidin-7-yl]-4-methyl-piperidine-4-carboxamide] | 0.99 | 9.15
6 | CN(CCC(N)=O)c1cc(N2CCC[C@@H](C(N)=O)C2)n2nc(-c3ccccc3Cl)c(-c3ccc(Cl)cc3)c2n1 [Compound 23, (3R)-1-[5-[(3-amino-3-oxo-propyl)-methyl-amino]-2-(2-chlorophenyl)-3-(4-chlorophenyl)pyrazolo[1,5-a]pyrimidin-7-yl]piperidine-3-carboxamide] | 25.5 | 101
7 | CN(CCC(N)=O)c1cc(N2CC(CC(N)=O)C2)n2nc(-c3ccccc3Cl)c(-c3ccc(Cl)cc3)c2n1 [Compound 24, 3-[[7-[3-(2-amino-2-oxo-ethyl)azetidin-1-yl]-2-(2-chlorophenyl)-3-(4-chlorophenyl)pyrazolo[1,5-a]pyrimidin-5-yl]-methyl-amino]propanamide] | 14.6 | 94.6
8 | CN(C)C(=O)CN(C)c1cc(N2CCC(C)(C(N)=O)CC2)n2nc(-c3ccccc3Cl)c(-c3ccc(Cl)cc3)c2n1 [Compound 25, 1-[2-(2-chlorophenyl)-3-(4-chlorophenyl)-5-[[2-(dimethylamino)-2-oxo-ethyl]-methyl-amino]-pyrazolo[1,5-a]pyrimidin-7-yl]-4-methyl-piperidine-4-carboxamide] | 6.47 | 17.5
9 | CCNC(=O)CN(C)c1cc(N2CCC(C)(C(N)=O)CC2)n2nc(-c3ccccc3Cl)c(-c3ccc(Cl)cc3)c2n1 [Compound 26, 1-[2-(2-chlorophenyl)-3-(4-chlorophenyl)-5-[[2-(ethylamino)-2-oxo-ethyl]-methyl-amino]pyrazolo[1,5-a]pyrimidin-7-yl]-4-methyl-piperidine-4-carboxamide] | 5.03 | 30.5
10 | CC(=O)NC1(C)CCN(c2cc(N(C)CCC(N)=O)nc3c(-c4ccc(Cl)cc4)c(-c4ccccc4Cl)nn23)CC1 [Compound 27, 3-[[7-(4-acetamido-4-methyl-1-piperidyl)-2-(2-chlorophenyl)-3-(4-chlorophenyl)pyrazolo[1,5-a]pyrimidin-5-yl]-methyl-amino]propanamide] | 1.28 | 4.69
11 | CN(CCC(N)=O)c1cc(N2CC[C@H](CC(N)=O)C2)n2nc(-c3ccccc3Cl)c(-c3ccc(Cl)cc3)c2n1 [Compound 28, 3-[[7-[(3R)-3-(2-amino-2-oxo-ethyl)pyrrolidin-1-yl]-2-(2-chlorophenyl)-3-(4-chlorophenyl)pyrazolo[1,5-a]pyrimidin-5-yl]-methyl-amino]propanamide] | 18.9 | 93.9
12 | CN(C)C(=O)CN(C)c1cc(N2CCC[C@@H](C(N)=O)C2)n2nc(-c3ccccc3Cl)c(-c3ccc(Cl)cc3)c2n1 [Compound 29, (3R)-1-[2-(2-chlorophenyl)-3-(4-chlorophenyl)-5-[[2-(dimethylamino)-2-oxo-ethyl]-methyl-amino]pyrazolo[1,5-a]pyrimidin-7-yl]piperidine-3-carboxamide] | 34.8 | 114
13 | CN(CP(C)(C)=O)c1cc(N2CC[C@H](CC(N)=O)C2)n2nc(-c3ccccc3Cl)c(-c3ccc(Cl)cc3)c2n1 [Compound 30, 2-[(3R)-1-[2-(2-chlorophenyl)-3-(4-chlorophenyl)-5-[dimethylphosphorylmethyl(methyl)amino]pyrazolo[1,5-a]pyrimidin-7-yl]pyrrolidin-3-yl]acetamide] | 679 | 198
14 | CCNC(=O)CN(C)c1cc(N2CC(CC(N)=O)C2)n2nc(-c3ccccc3Cl)c(-c3ccc(Cl)cc3)c2n1 [Compound 31, 2-[1-[2-(2-chlorophenyl)-3-(4-chlorophenyl)-5-[[2-(ethylamino)-2-oxo-ethyl]-methyl-amino]pyrazolo[1,5-a]pyrimidin-7-yl]azetidin-3-yl]acetamide] | 114 | 418
15 | CN(C)C(=O)CN(C)c1cc(N2CC(CC(N)=O)C2)n2nc(-c3ccccc3Cl)c(-c3ccc(Cl)cc3)c2n1 [Compound 32, 2-[1-[2-(2-chlorophenyl)-3-(4-chlorophenyl)-5-[[2-(dimethylamino)-2-oxo-ethyl]-methyl-amino]pyrazolo[1,5-a]pyrimidin-7-yl]azetidin-3-yl]acetamide] | 584 | > 10000
16 | CN(CP(C)(C)=O)c1cc(N2CC(CC(N)=O)C2)n2nc(-c3ccccc3Cl)c(-c3ccc(Cl)cc3)c2n1 [Compound 33, 2-[1-[2-(2-chlorophenyl)-3-(4-chlorophenyl)-5-[dimethylphosphorylmethyl(methyl)amino]pyrazolo[1,5-a]pyrimidin-7-yl]azetidin-3-yl]acetamide] | > 10000 | 116
17 | CN(CP(C)(C)=O)c1cc(N2CCC[C@@H](C(N)=O)C2)n2nc(-c3ccccc3Cl)c(-c3ccc(Cl)cc3)c2n1 [Compound 34, (3R)-1-[2-(2-chlorophenyl)-3-(4-chlorophenyl)-5-[dimethylphosphorylmethyl(methyl)amino]pyrazolo[1,5-a]pyrimidin-7-yl]piperidine-3-carboxamide] | > 10000 | 155
